Results on one compound are retold here after PMC12123601, “Light-Induced, Lysine-Targeting Irreversible Covalent Inhibition of the Human Oxygen Sensing Hydroxylase Factor Inhibiting HIF (FIH)” (Journal of the American Chemical Society, 2025).

Where “and” joins values, the source holds several entries; their conditions need not be identical. Equal entries are not always repeated.

Common to all, as to assay type: cell-based
One test concerns the target T1, PHD2 (Homo sapiens, UniProt Q9GZT9).
T1 construct: endogenous in cells; host or cells: Hep3B (SCSP-5045)
The experiment in a line: CETSA in Hep3B cells detecting PHD2 engagement. The note with it: 50 μM, 12-48 h after 30 min light activation. The protocol: (§1) To investigate potential cellular target engagement of NBA-ZG-2291 with FIH, we performed a time-dependent cellular thermal shift assay (CETSA) using Hep3B cells. The results imply that, after 30 min of light activation (365 nm, 16 W), NBA-ZG-2291 effectively stabilizes FIH with a ΔT m of about 9 °C after incubation for 12–48 h (Figure A), indicating sustained engagement with FIH. […] We also performed Western blotting to examine the protein levels of both HIF-1α and HIF-2α in control and NBA-ZG-2291-treated Hep3B cells.
Figure S11. The CETSA assay detecting PHD2 engagement was carried out with Hep3B cells grown in the presence of NBA-ZG-2291 (50 µM) for 12-48 h after 30 minutes of light activation (365 nm, 16W). The intensity of the bands for grayscale analysis was referenced to the starting temperature (37 °C). α-Actinin was the sample loading control. n = 2; mean ± SD. The uncropped blot is […]
(1 picture or pasted object on this page, not shown here)
3.4 Intact protein mass spectrometry […]
The process of customizing non-standard residues (NBA-ZG-2291 modified Lys106) in the amber14sb force field involved the following steps: First, the molecular structure of NBA-ZG-2291 was obtained and its topology was generated. […] The molecular charges were then calculated using the RESP method, and the topology file was updated with these charge values. […]

The subject of the next test is HIF-1α and HIF-2α. The experiment in a line: Western blotting of HIF-1α and HIF-2α protein levels in Hep3B cells. The procedure: as §1
Another test has as its system Hep3B cells. The experiment in a line: Whole-genome RNA sequencing of treated Hep3B cells. Conditions: replicates B1, B2. The procedure:
To confirm whether the effects of NBA-ZG-2291 on gene expression are FIH-dependent, we knocked down FIH using siRNA and compared the impact of NBA-ZG-2291 treatment and FIH knockdown (siFIH) on gene expression in Hep3B cells. Whole-genome expression profiling analysis was conducted in NBA-ZG-2291-treated Hep3B cells and FIH knockdown Hep3B cells, with DMSO-treated Hep3B cells serving as controls.

T1 sequence (Q9GZT9 whole entry): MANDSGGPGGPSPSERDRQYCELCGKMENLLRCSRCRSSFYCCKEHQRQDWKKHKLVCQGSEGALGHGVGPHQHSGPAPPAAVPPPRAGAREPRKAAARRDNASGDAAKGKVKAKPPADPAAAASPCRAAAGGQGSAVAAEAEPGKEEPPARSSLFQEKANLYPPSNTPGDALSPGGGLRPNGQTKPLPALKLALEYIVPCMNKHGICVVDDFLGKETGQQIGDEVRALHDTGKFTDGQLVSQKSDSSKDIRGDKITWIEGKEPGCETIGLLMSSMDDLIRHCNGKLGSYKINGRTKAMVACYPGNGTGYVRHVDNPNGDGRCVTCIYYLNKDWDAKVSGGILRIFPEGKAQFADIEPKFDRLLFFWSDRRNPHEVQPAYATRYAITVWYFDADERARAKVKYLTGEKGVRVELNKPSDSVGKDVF

Regarding `O=C(O)CNC(=O)c1ncc(-c2cc(-c3ccc(CO)c([N+](=O)[O-])c3)no2)cc1O` [NBA-ZG-2291], the “Effect on stability of PHD2 in cells (CETSA)” value at PHD2 is given as “not observed to affect the stability of PHD2”. For the same compound, in the test with HIF-1α and HIF-2α, the “Protein levels of HIF-1α and HIF-2α” value is “did not significantly alter the levels of either HIF-1α or HIF-2α”. In the test with Hep3B cells, the “DPM1 expression (whole-genome RNA sequencing)” value is 3.9965 and 3.239; the “SCYL3 expression (whole-genome RNA sequencing)” value is 0.949 and 1.202; the “TNMD expression (whole-genome RNA sequencing)” value turned out to be 0; the “TSPAN6 expression (whole-genome RNA sequencing)” value is 7.032 and 6.946.
